# According to paper PMC8745345, “Hydroxy Pentacyclic Triterpene Acid, Kaempferol, Inhibits the Human 5-Hydroxytryptamine Type 3A Receptor Activity” (International Journal of Molecular Sciences, 2022):
# Numbering of substitutions follows the chain as printed.
# Key:
# Type in all cases: cell-based
# [1] = target: T1, human 5-HT3A receptor W63A mutant (Homo sapiens, UniProt P46098, W85A); test: Two-electrode voltage clamp, I5-HT inhibition, W63A mutant; conditions: −80 mV
# T1 sequence (P46098 24-478 W85A): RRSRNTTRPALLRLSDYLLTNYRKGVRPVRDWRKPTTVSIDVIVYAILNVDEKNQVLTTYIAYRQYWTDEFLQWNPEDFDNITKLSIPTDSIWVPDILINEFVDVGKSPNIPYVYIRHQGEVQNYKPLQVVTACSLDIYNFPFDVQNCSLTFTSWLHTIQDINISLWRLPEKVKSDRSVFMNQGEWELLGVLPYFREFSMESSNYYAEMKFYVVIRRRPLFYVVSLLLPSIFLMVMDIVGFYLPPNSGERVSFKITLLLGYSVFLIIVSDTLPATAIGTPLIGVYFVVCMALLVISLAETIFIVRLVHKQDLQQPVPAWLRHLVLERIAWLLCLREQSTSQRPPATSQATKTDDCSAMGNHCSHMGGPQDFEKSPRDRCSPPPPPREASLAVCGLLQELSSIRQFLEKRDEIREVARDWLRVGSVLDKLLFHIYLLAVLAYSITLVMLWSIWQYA
# Experimental: (§1) Xenopus oocytes were used in this study as cells for expression of human 5-HT3A receptor. All female frogs used in this experiment were obtained from the Korean Xenopus Resource Center for Research (KXRCR000001). […] Xenopus oocytes were extracted during ice incubation state and isolated as single oocytes using collagenase II (2 mg/mL) in OR2 buffer (82.5 mM NaCl, 2 mM KCl, 1 mM MgCl2, 5 mM HEPES, pH 7.4). Isolated oocytes were incubated with ND96 incubation buffer (96 mM NaCl, 2 mM KCl, 1 mM MgCl2, 1.8 mM CaCl2, 5 mM HEPES, 2.5 mM sodium pyruvate, and 50 mg/mL gentamycin, pH 7.4) at 18 °C until the experiment was performed. Human 5-HT3A receptor mRNA was injected into oocytes using a nanoinjector (Drummond Scientific, Broomall, PA, USA) with a mineral-filled 10 μL microdispenser (VWR, Piscataway, NJ, USA).
# (§2) To confirm the KAE activity on the human 5-HT3A receptor, a two-electrode voltage clamp (OC-725C; Warner Instruments, Hamden, CT, USA) with a Digitata 1550A was used. For the experiment, induced-inward current was converted to digital data with pClamp 10 software (Axon Instruments, Union City, CA, USA). All experiments were performed at room temperature using an oocyte clamp equipped with Digidata. The membrane holding potential was −80 mV.
# (§3) The voltage relationship experiment for confirming the relationship between induce-inward current and voltage, the voltage was varied from −80 mV to +60 mV using a ramp protocol. […] All recording data were analyzed using Clampfit 9.0 (Molecular Devices, San Jose, CA, USA). […]
# (§4) All presented experiments were performed at least three times for scientific verification. […] Induced-inward current data were analyzed with SigmaPlot 10.0 software (Systat Software, Inc., San Jose, CA, USA). […]
# [2] = target: T2, human 5-HT3A receptor E209A mutant (Homo sapiens, UniProt P46098, E231A); test: Two-electrode voltage clamp, I5-HT inhibition, E209A mutant
# T2 construct: expressed in transfected cells; host or cells: Xenopus oocytes injected with mutant mRNA
# T2 sequence (P46098 24-478 E231A): T1 sequence (P46098 24-478 W85A) with A62W, E208A
# Experimental: Human 5-HT3A receptor cDNA was linearized using restriction enzyme XhoI. In vitro transcription was performed using an mMESSAGE mMACHINE T7 Transcription Kit (Thermo Fisher Scientific, Waltham, MA, USA). The final mRNA product was dissolved in 1X Diethyl Pyrocarbonate (RNase-free water) at a final concentration of 1 μg/μL and kept in a deep-freezer at −80 °C until used.
# Xenopus oocytes were used in this study as cells for expression of human 5-HT3A receptor. All female frogs used in this experiment were obtained from the Korean Xenopus Resource Center for Research (KXRCR000001). […] Isolated oocytes were incubated with ND96 incubation buffer (96 mM NaCl, 2 mM KCl, 1 mM MgCl2, 1.8 mM CaCl2, 5 mM HEPES, 2.5 mM sodium pyruvate, and […], pH 7.4) at 18 °C until the experiment was performed. Human 5-HT3A receptor mRNA was injected into oocytes using a nanoinjector (Drummond Scientific, Broomall, PA, USA) with a mineral-filled 10 μL microdispenser (VWR, Piscataway, NJ, USA).
# For the experiment, induced-inward current was converted to digital data with pClamp 10 software (Axon Instruments, Union City, CA, USA). All experiments were performed at room temperature using an oocyte clamp equipped with Digidata. The membrane holding potential was −80 mV.
# The voltage relationship experiment for confirming the relationship between induce-inward current and voltage, the voltage was varied from −80 mV to +60 mV using a ramp protocol. Each microelectrode was filled with 3 M KCl having a resistance of 0.2 MΩ. Serotonin and KAE applied in the experiment were diluted in ND96 bath solution (96 mM NaCl, 2 mM KCl, 1 mM MgCl2, 1.8 mM CaCl2, and 5 mM HEPES, pH 7.5) to specified concentration. The rate of application of the reagent was 2 mL per minute. All recording data were analyzed using Clampfit 9.0 (Molecular Devices, San Jose, CA, USA). […]
# All presented experiments were performed at least three times for scientific verification. […] Induced-inward current data were analyzed with SigmaPlot 10.0 software (Systat Software, Inc., San Jose, CA, USA).
# [3] = target: T3, human 5-HT3A receptor R65A mutant (Homo sapiens, UniProt P46098, R87A); test: Two-electrode voltage clamp, I5-HT inhibition, R65A mutant; conditions: −80 mV
# T3 sequence (P46098 24-478 R87A): T1 sequence (P46098 24-478 W85A) with A62W, R64A
# Experimental: as §1, §2, §3, §4
smiles,measurement,setting,value
"O=c1c(O)c(-c2ccc(O)cc2)oc2cc(O)cc(O)c12 [KAE, kaempferol]",IC50,[1],33.7 ± 5.7 µM
same,Vmax,[1],76.3 ± 10.7%
same,n (Hill coefficient),[1],1.3 ± 0.5
same,IC50,[2],55.1 ± 5.8 µM
same,Vmax,"[2]; E209A, −80 mV",81.1 ± 9.7%
same,n (Hill coefficient),"[2]; E209A, −80 mV",1.7 ± 0.6
same,IC50,[3],44.7 ± 9.1 µM
same,Vmax,[3],82.6 ± 7.4%
same,n (Hill coefficient),[3],1.8 ± 0.7
